Measured values from ChEMBL document CHEMBL1201862, “PubChem BioAssay data set” (2004).
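Values below derive from 48-hour exposures of cells grown in 96-well plates, with endpoints linearly interpolated between the two concentrations bracketing the appropriate inhibition level. GI50 marks 50% less growth.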 Active and inactive are the calls of the source. Rule as the data show it: active = GI50 up to about 1.1 µM and inactive = higher.

Columns and labels:
Assay in all cases: DTP human tumour cell line panel, 48 h
DLD-1 = test system: DLD-1
SF-295 = test system: SF-295
A549 = test system: A549
HL-60 = test system: HL-60
SK-MEL-2 = test system: SK-MEL-2
Malme-3M = test system: Malme-3M
SK-MEL-5 = test system: SK-MEL-5
EKVX = test system: EKVX
UACC-257 = test system: UACC-257
IGROV-1 = test system: IGROV-1
NCI-H460 = test system: NCI-H460
SK-MEL-28 = test system: SK-MEL-28
OVCAR-3 = test system: OVCAR-3
K562 = test system: K562
HCC 2998 = test system: HCC 2998
DU-145 = test system: DU-145
T47D = test system: T47D
BT-549 = test system: BT-549
PC-3 = test system: PC-3

SMILES | GI50 (DLD-1) | GI50 (SF-295) | GI50 (A549) | GI50 (HL-60) | GI50 (SK-MEL-2) | GI50 (Malme-3M) | GI50 (SK-MEL-5) | GI50 (EKVX) | GI50 (UACC-257) | GI50 (IGROV-1) | GI50 (NCI-H460) | GI50 (SK-MEL-28) | GI50 (OVCAR-3) | GI50 (K562) | GI50 (HCC 2998) | GI50 (DU-145) | GI50 (T47D) | GI50 (BT-549) | GI50 (PC-3)
CC1=CC(=O)N2C(OC[C@@H]2c2ccccc2)O1 (stereo not given in full) | > 100 µM (inactive) | > 100 µM (inactive) | > 100 µM (inactive) | > 100 µM (inactive) | > 100 µM (inactive) | > 100 µM (inactive) | > 100 µM (inactive) | > 100 µM (inactive) | > 100 µM (inactive) | > 100 µM (inactive) | > 100 µM (inactive) | > 100 µM (inactive) | > 100 µM (inactive) | > 100 µM (inactive) | – | – | – | – | –
O=C(COc1ccc(OCC(=O)N2C(=O)CC/C2=N\c2ccc(Cl)cc2)cc1)N1C(=O)CS/C1=N\c1ccc(Cl)cc1 | – | 52.8 µM (inactive) | 26.4 µM (inactive) | 37.2 µM (inactive) | > 100 µM (inactive) | 77.3 µM (inactive) | 76 µM (inactive) | 76.9 µM (inactive) | 56 µM (inactive) | 47.6 µM (inactive) | 72.6 µM (inactive) | > 100 µM (inactive) | 61.2 µM (inactive) | 66.4 µM (inactive) | > 100 µM (inactive) | > 100 µM (inactive) | 14.2 µM (inactive) | 57.4 µM (inactive) | 47.1 µM (inactive)
COc1cc(/C=C/c2sc3ccccc3[n+]2C)ccc1N(C)C | – | 47.4 µM (inactive) | 5.98 µM (inactive) | 6.85 µM (inactive) | 2.32 µM (inactive) | 2.49 µM (inactive) | 4.14 µM (inactive) | 21.8 µM (inactive) | 2.96 µM (inactive) | 7.41 µM (inactive) | 6.11 µM (inactive) | 8.2 µM (inactive) | 2.23 µM (inactive) | 2.1 µM (inactive) | 21.8 µM (inactive) | 13.6 µM (inactive) | 3.21 µM (inactive) | 0.368 µM (active) | 3.24 µM (inactive)
O=C1C=CC(=O)c2c1ccc1c3ccccc3n(CCCCCCCCn3c4ccccc4c4ccc5c(c43)C(=O)C=CC5=O)c21 | – | > 100 µM (inactive) | > 100 µM (inactive) | > 100 µM (inactive) | > 100 µM (inactive) | > 100 µM (inactive) | > 100 µM (inactive) | > 100 µM (inactive) | > 100 µM (inactive) | > 100 µM (inactive) | > 100 µM (inactive) | > 100 µM (inactive) | > 100 µM (inactive) | > 100 µM (inactive) | > 100 µM (inactive) | > 100 µM (inactive) | > 100 µM (inactive) | > 100 µM (inactive) | > 100 µM (inactive)
CN(C)c1ccc(/C=c2/c3ccccc3n3c2cc(C24CC5CC(CC(C5)C2)C4)[n+]3C)cc1 | – | 0.32 µM (active) | 0.205 µM (active) | 0.231 µM (active) | 0.313 µM (active) | 0.527 µM (active) | 0.158 µM (active) | 0.344 µM (active) | 0.251 µM (active) | 0.127 µM (active) | 0.313 µM (active) | 0.643 µM (active) | 0.476 µM (active) | 0.0998 µM (active) | 0.353 µM (active) | 0.311 µM (active) | 0.124 µM (active) | 0.245 µM (active) | 0.125 µM (active)
C=C1C(=O)OC2C1C(OC(=O)/C(C)=C/C)CC1(C)C(=O)CCC(=C)C21 (stereo not given) | – | 18.5 µM (inactive) | 19.2 µM (inactive) | 1.89 µM (inactive) | 11.9 µM (inactive) | 5.85 µM (inactive) | 7.64 µM (inactive) | 16.3 µM (inactive) | 11.2 µM (inactive) | 11.3 µM (inactive) | 13.3 µM (inactive) | 3.47 µM (inactive) | 6.92 µM (inactive) | 3.13 µM (inactive) | 9.73 µM (inactive) | 8.07 µM (inactive) | 13.1 µM (inactive) | 6.27 µM (inactive) | 11 µM (inactive)
Cc1cccc2sc(NC(=O)c3cc([N+](=O)[O-])ccc3Cl)nc12 | – | 4.82 µM (inactive) | 3.86 µM (inactive) | 72.9 µM (inactive) | 4.46 µM (inactive) | 5.38 µM (inactive) | 1.84 µM (inactive) | 11.4 µM (inactive) | 6.84 µM (inactive) | 2.68 µM (inactive) | 3.96 µM (inactive) | 5.22 µM (inactive) | 4.06 µM (inactive) | > 100 µM (inactive) | 9.33 µM (inactive) | 3.33 µM (inactive) | 4.35 µM (inactive) | 2.44 µM (inactive) | 4.14 µM (inactive)
NCCCN1c2ccccc2Sc2ccc(Cl)cc21 | – | > 5.83 µM (inactive) | 4.59 µM (inactive) | 9.98 µM (inactive) | > 6.21 µM (inactive) | 6.97 µM (inactive) | > 4.02 µM (inactive) | > 7.36 µM (inactive) | > 6.19 µM (inactive) | > 5.43 µM (inactive) | 3.33 µM (inactive) | > 5.85 µM (inactive) | 5.3 µM (inactive) | 2.63 µM (inactive) | 2.12 µM (inactive) | > 10 µM (inactive) | > 5.36 µM (inactive) | > 7.62 µM (inactive) | 4.17 µM (inactive)
